# Patent US20070275911A1, “Targeted Drug-Formaldehyde Conjugates and Methods of Making and Using the Same” (priority 2003, published 2007)
# Where two headings read alike, the source gives them in different places. Residues, ends and D or L forms follow the SMILES beside them. *: point of attachment. X1 = NOCC(=O)NCCOCCN*
# Tests used:
# [1] = biological target: T1, ανβ3 integrin present on viable MDA-MB-435 cells (Homo sapiens, UniProt P05106+P06756); assay: Vitronectin cell adhesion (competition) assay; format: cell-based
# T1 construct: endogenous in cells
# From the text: The data are presented as the mean fluorescence for each condition with the background, drug-free cell fluorescence subtracted.
# [2] = tested on: Staphylococcus aureus Mu 50 (VISA); details: for MIC: Mu 50 VISA
# [3] = tested on: Staphylococcus aureus 8325 (susceptible); assay: microbe, parasite or virus in culture
# [4] = tested on: Staphylococcus aureus Mu 3 (Hetero VISA)
# [5] = tested on: Staphylococcus aureus IL-A (Hetero VISA)
# [6] = tested on: Staphylococcus aureus IL-F (VISA)
# [7] = tested on: Staphylococcus aureus 8325 (susceptible); details: for MIC: 8325 susceptible
# [8] = cell line not stated; cited from earlier work
# [9] = tested on: Staphylococcus aureus IL-A (Hetero VISA); assay: microbe, parasite or virus in culture
# [10] = tested on: Staphylococcus aureus Mu 3 (Hetero VISA); assay: microbe, parasite or virus in culture
# [11] = tested on: Staphylococcus aureus Mu 50 (VISA); assay: microbe, parasite or virus in culture
# [12] = tested on: Staphylococcus aureus IL-F (VISA); assay: microbe, parasite or virus in culture
# MCF-7 cells = assay: Breast cancer cell growth inhibition, 4 h treatment; details: MCF-7 (ER/AEBS/MDR +/+/−), 4 h treatment
# Procedure: (§1) Breast cancer cell growth inhibition: The ER-targeted DOX-formaldehyde conjugates, 11a-c, were evaluated against four breast cancer cell lines that differ in terms of estrogen receptor and multidrug resistance expression. MCF-7 cells are human breast adenocarcinoma cells that express estrogen receptor at a level of 195,000 sites/cell. MCF-7/Adr cells are an ER-negative, doxorubicin-resistant variant of the parent MCF-7 that express the multidrug resistance (MDR) phenotype. MDA-MB-231 and MDA-MB-435 are ER-negative human breast adenocarcinoma and ductal carcinoma cells, respectively. All cytotoxins were formulated as 100× solutions in DMSO/1% AcOH and delivered to cells as 1% DMSO (0.01% AcOH) in cell culture medium. In all experiments cell treatment lasted 4 h.
# (§2) In Vitro cellular growth inhibition experiments: The IC50 for the targeted formaldehyde conjugates and all control compounds were performed as previously described with minor modifications. All compounds were solubilized in dimethylsulfoxide containing 1% v/v acetic acid. The concentrations of all 100× DMSO/1% AcOH drug solutions was determined spectrophotometrically by absorbance at 480 nm (ε=[…]). […] For every experiment each drug level and controls were performed in hexuplicate; each experiment was performed in at least duplicate. Error bars represent one standard deviation about the mean for the six wells per lane measured for each drug concentration.
# MDA-MB-435 = assay: as above; details: MDA-MB-435 (−/+/−), 4 h treatment
# Procedure: as §1, §2
# MDA-MB-231 = assay: as above; details: MDA-MB-231 (−/+/−), 4 h treatment
# Procedure: as §1, §2
# MCF-7/Adr cells = assay: as above; details: MCF-7/Adr (−/+/+), 4 h treatment
# Procedure: as §1, §2
# MCF-7/ADR = details: resistant MCF-7/ADR; cited from earlier work
# [13] = cited from earlier work; for tolerance by mice: doxoform: doses as low as 1 mg/kg, epidoxoform: up to 150% of MTD of doxorubicin
# MCF-7 = details: sensitive MCF-7; cited from earlier work
# [14] = buffer, pH 7.4; cited from earlier work
# [15] = tested on: MDA-MB-23 1, and BT-20 human breast cancer cells; details: cited from earlier work
# [16] = tested on: human breast cancer xenografts; details: same time period (10 days); cited from earlier work
# 3T3 mouse fibroblasts = details: cited from earlier work
# E. coli ATCC 25922 = details: cited from earlier work
# S. aureus ATCC 25723 = details: cited from earlier work
# P. aeruginosa ATCC 27853 = details: cited from earlier work
# Human erythrocytes = details: cited from earlier work
# [17] = Water solubility and storage stability of RGD constructs
molecule,measurement,setting,value
N=C(N)NCCC[C@H](NC(=O)[C@H](CS)NC(=O)[C@H](CC(=O)O)NC(=O)[C@@H](N)CS)C(=O)NCC(=O)N[C@@H](CC(=O)O)C(=O)N[C@@H](CS)C(=O)N[C@@H](Cc1ccccc1)C(=O)N[C@@H](CS)C(=O)NCCOCCNC(=O)CON [Acyclic-RGD-4C-tether 3] (H-CDCRGDCFC-X1),IC50,[1],1 nM
"O=C(O)c1cn(C2CC2)c2cc(N3CCNCC3)c(F)cc2c1=O [Ciprofloxacin, ciprofloxacin]",antibiotic activity,[2]; VISA and hetero VISA strains,inactive
same,MIC,[3]; 24 h,6 µM
same,MIC,[3]; 48 h,12 µM
"O=C(NCN1CCN(c2cc3c(cc2F)c(=O)c(C(=O)O)cn3C2CC2)CC1)c1ccccc1O [Ciprosaliform, N-(2-Hydroxybenzamido-methyl)-ciprofloxacin]",MIC,[4]; 24 hr,4 µM
same,MIC,[4]; 48 hr,8 µM
same,MIC,[2]; 24 hr,4 µM
same,MIC,[2]; 48 hr,8 µM
same,MIC,[5]; 24 hr,8/8 μM
same,MIC,[5]; 48 hr,8/8 μM
same,MIC,[6]; 24 hr,8/8 μM
same,MIC,[6]; 48 hr,8/8 μM
same,MIC,[7]; 24 hr,1/1 μM
same,MIC,[7]; 48 hr,1/1 μM
same,fold more active than ciprofloxacin,[7]; susceptible strain,6 fold
"C#Cc1cccc(Nc2ncnc3cc(OCCOC)c(OCCOC)cc23)c1 [Tarceva, reference compound]",IC50,[8],0.05 µM
"CN[C@H](CC(C)C)C(=O)N[C@H]1C(=O)N[C@@H](CC(N)=O)C(=O)N[C@H]2C(=O)N[C@H]3C(=O)N[C@H](C(=O)N[C@H](C(=O)O)c4cc(O)cc(O)c4-c4cc3ccc4O)[C@H](O)c3ccc(c(Cl)c3)Oc3cc2cc(c3O[C@@H]2O[C@H](CO)[C@@H](O)[C@H](O)[C@H]2O[C@H]2C[C@](C)(N)[C@H](O)[C@H](C)O2)Oc2ccc(cc2Cl)[C@H]1O [Vancomycin, vancomycin]",MIC,[3]; 24 h,0.3 µM
same,MIC,[3]; 48 h,0.3 µM
same,MIC,[9]; 24 h,1 µM
same,MIC,[9]; 48 h,1 µM
same,MIC,[10]; 24 h,0.5 µM
same,MIC,[10]; 48 h,1 µM
same,MIC,[11]; 24 h,4 µM
same,MIC,[11]; 48 h,4 µM
same,MIC,[12]; 24 h,3 µM
same,MIC,[12]; 48 h,3 µM
"CC/C(=C(\c1ccc(O)cc1)c1ccc(OCCN(C)C)cc1)c1ccccc1 [compound 12, E/Z-4-Hydroxytamoxifen, reference compound]",IC50,MCF-7 cells,300 nM
same,IC50,MDA-MB-435,20 to 40 µM
same,IC50,MDA-MB-231,20 to 40 µM
same,IC50,MCF-7/Adr cells,20 to 40 µM
COc1cccc2c1C(=O)c1c(O)c3c(c(O)c1C2=O)C[C@@](O)(C(=O)CO)C[C@@H]3OC1CC2C(OCN2CN2COC3C(C)OC(O[C@H]4C[C@](O)(C(=O)CO)Cc5c(O)c6c(c(O)c54)C(=O)c4c(OC)cccc4C6=O)CC32)C(C)O1 (stereo partly drawn) [doxoform],times as potent as doxorubicin,MCF-7/ADR,"10,000 times"
same,tolerance by mice,[13],poorly tolerated
same,times as potent as doxorubicin,MCF-7,250 times
COc1cccc2c1C(=O)c1c(O)c3c(c(O)c1C2=O)C[C@@](O)(C(=O)CO)C[C@@H]3O[C@H]1C[C@H]2C(OCN3CN2CO[C@H]2[C@@H](C)O[C@@H](O[C@H]4C[C@](O)(C(=O)CO)Cc5c(O)c6c(c(O)c54)C(=O)c4c(OC)cccc4C6=O)C[C@@H]23)[C@H](C)O1 (stereo partly drawn) [epidoxoform],half-life,[14],2 h
same,tolerance by mice,[13],well tolerated
same,efficacy in mice,[13]; relative to doxorubicin,"improved efficacy in mice, relative to doxorubicin"
O=c1c(-c2ccc(O)cc2)coc2cc(O)cc(O)c12 [genistein],IC50,[8],120 µM
same,antitumor activity,[15],120 µM
same,increase in tumor size,[16],> 200%
(KLAKKLA)2: antimicrobial peptide (KLAKKLA)2 SEQ ID NO: 3 (microbe homing peptide),sub-lethal concentration (lysis),3T3 mouse fibroblasts,>272 µM
same,MIC (bacterial lysis),E. coli ATCC 25922,6 µM
same,MIC (bacterial lysis),S. aureus ATCC 25723,6 µM
same,MIC (bacterial lysis),P. aeruginosa ATCC 27853,3 µM
same,sub-lethal concentration (lysis),Human erythrocytes,>750 µM
RGD-4C: peptide CDCRGDCFC; at b346 the form with disulfide bridges [reference compound],water solubility,[17],poorly water soluble over a range of pH
